Read-outs that look alike come from different tables or passages of the source.
What was measured:
[1] = tested on: MV-4-11 cells; experiment: Anti-proliferative activity against MV-4-11 cells (cell viability chemiluminescence); format: cell-based; conditions: MV-4-11 human monocytic leukemia cells, three days of exposure
Protocol: This study utilized a cell proliferation assay to analyze the cytotoxicity of MV-4-11 human monocytic leukemia cells after three days of exposure to NMT1 inhibitors. The MV-4-11 cell line was purchased from Nanjing Cobuilder Biotechnology Co., Ltd., and cultured in IMDM medium (Viva cell) in an incubator (Thermo) at 37 °C with 5% CO2. In this experiment, NMT1 inhibitors were dissolved in DMSO to obtain 600 µM stock solutions. Dose-response solutions were prepared with a top endpoint compound concentration of 3 µM, followed by three-fold serial dilutions in DMSO, totaling eight data points. The final concentration of DMSO was 0.5%.
MV-4-11 cells were seeded into a white 96-well plate, 80 µL of cell suspension per well, containing 6000 MV-4-11 cells. The cell plate was placed in the CO2 incubator for overnight culture. Then, 20 µL of NMT1 inhibitor solutions at different concentrations were added to the wells. The 96-well plate was placed back into the incubator for three days. Another cell plate was prepared, and the signal was read on the day of drug addition to serve as the maximum value (Max value in the equation below) for data analysis. To this cell plate, 25 µL of cell viability chemiluminescence detection reagent was added per well, followed by incubation at room temperature for 10 minutes to stabilize the luminescence signal. A multi-label analyzer was used for reading.
The raw data were converted into inhibition rates using the equation (Sample - Min) / (Max - Min) * 100%. The IC50 values were then determined by fitting a four-parameter curve (using the "log(inhibitor) vs. response - Variable slope" model in GraphPad Prism). Min: wells treated with 0.5% DMSO; Max: Day 0 wells. Table 1 provides the inhibitory activity of the compounds of the invention on MV-4-11 cell proliferation. Table 1: Compound Inhibitory Activity against NMT1 Enzyme (IC50) and Anti-proliferative Activity against MV-4-11 Cell line (IC50)

[2] = target: T1, NMT1 enzyme (Homo sapiens, UniProt P30419); experiment: Inhibitory activity on NMT1 enzyme catalysis (fluorescence intensity assay); format: biochemical
T1 sequence (P30419 1-496): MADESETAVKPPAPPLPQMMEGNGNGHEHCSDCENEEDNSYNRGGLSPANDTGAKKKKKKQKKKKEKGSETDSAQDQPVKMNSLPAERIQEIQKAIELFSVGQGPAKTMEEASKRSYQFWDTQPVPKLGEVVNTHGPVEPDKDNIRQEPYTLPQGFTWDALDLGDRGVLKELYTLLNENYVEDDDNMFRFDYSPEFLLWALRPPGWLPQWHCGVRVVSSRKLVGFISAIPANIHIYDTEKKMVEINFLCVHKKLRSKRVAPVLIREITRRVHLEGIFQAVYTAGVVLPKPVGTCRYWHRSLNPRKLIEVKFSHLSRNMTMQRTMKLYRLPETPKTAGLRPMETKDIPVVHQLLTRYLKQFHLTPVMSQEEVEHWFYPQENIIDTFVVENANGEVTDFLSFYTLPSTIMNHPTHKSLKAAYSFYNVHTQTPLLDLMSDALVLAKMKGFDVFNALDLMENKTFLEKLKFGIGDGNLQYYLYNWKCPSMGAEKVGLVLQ
Protocol: This study evaluated the ability of the compounds of the invention to inhibit NMT1 catalytic activity in vitro. […] The final concentration of the NMT1 enzyme was 6 nM, the final concentration of CPM (Reactive thiol fluorescence probe, Invitrogen, D346) was 1 µM, the final concentration of HSPP60 SRC was 20 µM, and the final concentration of DMSO was 0.5%.
Compounds were dissolved in DMSO to obtain 10 mM stock solutions. Dose-response solutions were prepared with a top endpoint compound concentration of 3 mM, followed by three-fold serial dilutions in DMSO, totaling ten data points. […] Then, 2.5 µL of the NMT1 enzyme working solution was added to the 384-well assay plate, followed by incubation at 25 °C for 10 minutes. Subsequently, 5 µL of the CPM and myristoyl-CoA working solution was added, the plate was centrifuged at 1000 rpm for 1 minute, and then 2.5 µL of the HSPP60 SRC working solution was added to initiate the reaction. The reaction was incubated at 25 °C for 45 minutes.
The IC50 curve of the compounds was fitted using the software XLfit 5.5.0 according to the nonlinear regression equation.

[3] = 6 nM NMT1 enzyme, 1.25 µM myristoyl-CoA, 20 µM HSPP60 SRC peptide, 45 minutes at 25 °C, read-out: NMT1 (IC50)

SMILES	IC50 ([1]; MV4-11, 72 h) [nM]	IC50 [2, 3] [nM]	also measured
Cc1c(NS(=O)(=O)c2c(Cl)cc(-c3ccc4sc5c(c4c3)CNCC5)cc2Cl)c(C2CC2)nn1C [Compound 4]	25.8	3.64	–
Cc1c(NS(=O)(=O)c2c(Cl)cc(-c3ccc4sc5c(c4c3)CNCC5)cc2Cl)c(CO)nn1C [Compound 14]	145	7.89	–
COCc1nn(C)c(C)c1NS(=O)(=O)c1c(Cl)cc(-c2ccc3sc4c(c3c2)CNCC4)cc1Cl [Compound 15]	–	–	IC50 ([1]; Homo sapiens, MV4-11, 72 h): 78.6 nM; IC50 [2]: 4.73 nM
Cc1c(NS(=O)(=O)c2c(Cl)cc(-c3ccc4sc5c(c4c3)CNCC5)cc2Cl)c(CF)nn1C [Compound 16]	58.5	4.67	–
CCc1nn(C)c(C)c1NS(=O)(=O)c1c(Cl)cc(-c2ccc3oc4c(c3c2)CNCC4)cc1Cl [Compound 46]	18.8	3.96	–
Cc1nn(C)c(C)c1NS(=O)(=O)c1c(Cl)cc(-c2ccc3oc4c(c3c2)CNCC4)cc1Cl [Compound 47]	23.1	4.17	–
Cc1c(NS(=O)(=O)c2c(Cl)cc(-c3ccn4nc5c(c4c3)CNCC5)cc2Cl)c(CC(C)C)nn1C [Compound 48]	36.7	4.2	–
CCc1nn(C)c(C)c1NS(=O)(=O)c1c(Cl)cc(-c2ccn3nc4c(c3c2)CNCC4)cc1Cl [Compound 49]	16.8	3.64	–
Cc1nn(C)c(C)c1NS(=O)(=O)c1c(Cl)cc(-c2ccn3nc4c(c3c2)CNCC4)cc1Cl [Compound 50]	21.9	3.79	–
CCc1nn(C)c(C)c1NS(=O)(=O)c1c(Cl)cc(-c2ccc3sc4c(c3c2)CCNC4)cc1Cl [Compound 55]	26.2	3.97	–
Cc1nn(C)c(C)c1NS(=O)(=O)c1c(Cl)cc(-c2ccc3sc4c(c3c2)CCNC4)cc1Cl [Compound 56]	29.7	4.21	–
Cc1c(NS(=O)(=O)c2c(Cl)cc(-c3ccc4c(c3)N3CCNC[C@H]3CO4)cc2Cl)c(CC(C)C)nn1C [Compound 57]	–	–	IC50 ([1]; Homo sapiens, MV4-11, 72 h): 144 nM; IC50 [2]: 8.76 nM
Cc1c(NS(=O)(=O)c2c(Cl)cc(-c3ccc4c(c3)N3CCNC[C@@H]3CO4)cc2Cl)c(CC(C)C)nn1C [Compound 60]	–	–	IC50 ([1]; Homo sapiens, MV4-11, 72 h): 152 nM; IC50 [2]: 7.95 nM
Cc1c(NS(=O)(=O)c2c(Cl)cc(N3CCc4sc5c(c4C3)CNCC5)cc2Cl)c(CC(C)C)nn1C [Compound 63, 2,6-dichloro-4-(3,4,6,7,8,9-hexahydrothieno[3,2-c:4,5-c']dipyridine-2(1H)-yl)-N-(3-isobutyl-1,5-dimethyl-1H-pyrazol-4-yl)benzenesulfonamide]	16.7	3.35	–
CCc1nn(C)c(C)c1NS(=O)(=O)c1c(Cl)cc(N2CCc3sc4c(c3C2)CNCC4)cc1Cl [Compound 64]	7.36	2.97	–
Cc1nn(C)c(C)c1NS(=O)(=O)c1c(Cl)cc(N2CCc3sc4c(c3C2)CNCC4)cc1Cl [Compound 65]	21.1	3.51	–
Cc1c(NS(=O)(=O)c2c(Cl)cc(N3CCn4nc5c(c4C3)CNCC5)cc2Cl)c(CC(C)C)nn1C [Compound 69]	21.9	3.75	–
CCc1nn(C)c(C)c1NS(=O)(=O)c1c(Cl)cc(N2CCn3nc4c(c3C2)CNCC4)cc1Cl [Compound 70]	15.2	3.46	–
Cc1nn(C)c(C)c1NS(=O)(=O)c1c(Cl)cc(N2CCn3nc4c(c3C2)CNCC4)cc1Cl [Compound 71]	25.9	3.79	–
Cc1nn(C)c(C)c1NS(=O)(=O)c1ccc(-c2ccc3sc4c(c3c2)CNCC4)cc1Cl [Compound B1]	14.4	2.67	–
Cc1nn(C)c(C)c1NS(=O)(=O)c1ccc(-c2ccc3oc4c(c3c2)CNCC4)cc1Cl [Compound B3]	21.9	3.1	–

SMILES	IC50 ([1]; MV4-11, 72 h) [nM]	IC50 [2, 3] [nM]	also measured
Cc1nn(C)c(C)c1NS(=O)(=O)c1ccc(-c2ccc3sc4c(c3c2)CNCC4)cc1 [Compound B4]	15.8	2.94	–
Cc1nn(C)c(C)c1NS(=O)(=O)c1ccc(-c2ccc3oc4c(c3c2)CNCC4)cc1 [Compound B6]	23.3	3.76	–
CCc1nn(C)c(C)c1NS(=O)(=O)c1ccc(-c2ccc3sc4c(c3c2)CNCC4)cc1Cl [Compound B7]	9.82	2.93	–
CCc1nn(C)c(C)c1NS(=O)(=O)c1ccc(-c2ccc3oc4c(c3c2)CNCC4)cc1Cl [Compound B9]	13.5	2.52	–
CCc1nn(C)c(C)c1NS(=O)(=O)c1ccc(-c2ccc3sc4c(c3c2)CNCC4)cc1 [Compound B10]	10.1	2.39	–
CCc1nn(C)c(C)c1NS(=O)(=O)c1ccc(-c2ccc3oc4c(c3c2)CNCC4)cc1 [Compound B12]	17.8	2.98	–
Cc1c(NS(=O)(=O)c2ccc(-c3ccc4oc5c(c4c3)CNCC5)cc2Cl)c(CC(C)C)nn1C [Compound B14]	25.9	3.06	–
Cc1c(NS(=O)(=O)c2ccc(-c3ccc4oc5c(c4c3)CNCC5)cc2)c(CC(C)C)nn1C [Compound B16]	32.4	3.84	–
Cc1c(NS(=O)(=O)c2ccc(-c3ccc4sc5c(c4c3)CNCC5)cc2Cl)c(CC#N)nn1C [Compound B19]	21.7	3.07	–
Cc1c(NS(=O)(=O)c2ccc(-c3ccc4sc5c(c4c3)CCNC5)cc2Cl)c(CC#N)nn1C [Compound B20]	34.9	3.56	–
Cc1c(NS(=O)(=O)c2c(Cl)cc(-c3ccc4sc5c(c4c3)CCNC5)cc2Cl)c(CC2CC2)nn1C [Compound B25]	–	–	IC50 ([1]; Homo sapiens, MV4-11, 72 h): 10.4 nM; IC50 ([2]; read-out: NMT1 (IC50), 6 nM NMT1 enzyme, 1.25 µM myristoyl-CoA, 20 µM HSPP60 SRC peptide, 45 minutes at 25 °C): 2.62 nM
Cc1c(NS(=O)(=O)c2ccc(-c3ccc4sc5c(c4c3)CNCC5)cc2Cl)c(CC2CC2)nn1C [Compound B27]	9.68	2.08	–
Cc1c(NS(=O)(=O)c2ccc(-c3ccc4oc5c(c4c3)CNCC5)cc2Cl)c(CC2CC2)nn1C [Compound B29]	17.4	3.6	–
Cc1c(NS(=O)(=O)c2ccc(-c3ccc4sc5c(c4c3)CNCC5)cc2)c(CC2CC2)nn1C [Compound B30]	12.3	2.59	–
Cc1c(NS(=O)(=O)c2c(Cl)cc(-c3ccc4oc5c(c4c3)CNCC5)cc2Cl)c(CC(F)(F)F)nn1C [Compound B34]	61.8	5.03	–
Cc1c(NS(=O)(=O)c2c(Cl)cc(N3CCc4oc5c(c4C3)CNCC5)cc2Cl)c(CC(F)(F)F)nn1C [Compound B36]	26.2	2.75	–
Cc1c(NS(=O)(=O)c2ccc(-c3ccc4sc5c(c4c3)CNCC5)cc2Cl)c(CC(F)(F)F)nn1C [Compound B37]	16.6	2.21	–
Cc1c(NS(=O)(=O)c2ccc(-c3ccc4sc5c(c4c3)CNCC5)cc2)c(CC(F)(F)F)nn1C [Compound B40]	–	–	IC50 ([1]; Homo sapiens, MV4-11, 72 h): 11.3 nM; IC50 [2]: 2.7 nM
Cc1c(NS(=O)(=O)c2ccc(-c3ccc4sc5c(c4c3)CCNC5)cc2Cl)c(CC(F)F)nn1C [Compound B60]	62.8	–	–
Cc1c(NS(=O)(=O)c2c(Cl)cc(-c3ccnc(N4CCNCC4)c3)cc2Cl)c(CC(C)C)nn1C [PCLX-001, reference compound]	–	–	IC50 ([1]; Homo sapiens, MV4-11, 72 h): 75.3 nM; IC50 [1]: 74.3 nM
